How the values were obtained:
CYP3A4 = CYP3A4 (Homo sapiens (Human), UniProt P08684); assay: CYP MUX (3A4) RI; type: in vitro ADME; conditions: human liver microsomes, substrate testosterone, 37° C. 10 min
Source text: This assay measures inhibition of CYP3A4 by a compound. Cytochromes P450 (CYPs) constitute a superfamily of heme-containing enzymes that recognize and metabolize a large number structurally diverse xenobiotics in the human body. CYP3A4 constitutes the largest portion of CYP enzymes in the liver that accounts for the metabolism of almost 50% of all drugs. This assay is used to evaluate the potential of a compound for developing DDIs. (Clarke, S. E.; Jones B. C. Drug-Drug Interactions, New York: Marcel Dekker; 2002. pp. 53-88).
Compound dilutions and assay-ready plates were prepared on a TTP Labtech mosquito® HTS. Assay conduction was fully automated on a customized Screening Platform from Caliper (now PerkinElmer) containing a Mitsubishi robotic plate handler, Liconic incubators, a Caliper Zephyr® liquid handling workstation equipped with temperature-controlled deck positions, a Biotek MultiFlo™ dispenser and an Agilent PlateLoc heat sealer. Assay plates were Corning Costar® 384 well PP plates. High throughput mass spectrometric readout was performed on a RapidFire® 300 system coupled to an AB Sciex API 4000™ triple quadrupole device. CYP isoform 3A4 was incubated in a separate reaction of 50 μL final volume. 25 μL of HLM (human liver microsomes, BD UltraPool™ 150, 0.25 mg/mL final concentration) and the respective substrate, testosterone (75 μM) for 3A4, in potassium phosphate buffer (100 mM, pH=7.4) were added to 250 nL of stamped compound solution (10 mM in DMSO). The reactions were started upon addition of 25 μL of a co-factor solution containing magnesium chloride (3.3 mM), glucose-6-phosphate (3.3 mM), glucose-6-phosphate dehydrogenase (1.4 units) and NADP (1 mM) in potassium phosphate buffer (100 mM, pH=7.4) and incubated on deck at 37° C. for 10 min. 8 μL of each reaction were transferred to the same readout plated filled with 48 μL of stop solution containing internal standards (concentration in final readout plate), 6-hydroxytestosterone-D7 (0.5 μM), 4′-hydroxydiclofenac-D4 (0.2 and dextrorphan-D3 (0.01 in acetonitrile with 0.5% formic acid. After heat sealing, plates were stored at −20° C. for at least 30 min, centrifuged and subjected directly to RapidFire®/MS analysis.

PAR-1 receptor = PAR-1 receptor (Homo sapiens (Human), UniProt P25116); assay: PAR-1 FLIPR Assay; type: cell-based; conditions: HEK 293 cells, calcium signal after PAR-1 selective receptor-activating peptide at EC80
Chain of PAR-1 receptor (P25116 22-425): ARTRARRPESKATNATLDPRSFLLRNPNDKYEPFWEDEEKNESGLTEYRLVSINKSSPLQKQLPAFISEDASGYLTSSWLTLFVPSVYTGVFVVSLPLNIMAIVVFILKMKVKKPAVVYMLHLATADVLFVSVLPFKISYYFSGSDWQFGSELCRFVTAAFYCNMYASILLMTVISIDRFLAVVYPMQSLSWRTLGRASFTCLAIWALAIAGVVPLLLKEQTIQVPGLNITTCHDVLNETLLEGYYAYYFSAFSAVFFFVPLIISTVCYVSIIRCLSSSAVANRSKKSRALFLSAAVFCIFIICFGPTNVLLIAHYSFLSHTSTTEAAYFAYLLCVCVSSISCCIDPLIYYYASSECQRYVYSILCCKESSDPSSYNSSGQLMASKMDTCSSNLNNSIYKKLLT
Procedure: This assay measures the potency of the inventive compounds as PAR-1 receptor antagonists.
Frozen HEK 293 Cells were plated in 384-well PDL coated plates at 12000 cells/well in 50 uL of DMEM media containing 10% FBS, pen/strep/L-Glutamine and non-essential amino acids, incubated overnight at 37° C./5% CO2. Media was then removed from the cells, incubated with 33 uL of Calcium-5 dye in assay buffer (Hank's buffer containing 20 mM HEPES, 0.04% Chaps and 2.5 mM Probenecid) for 60 minutes at 37° C. 2 uL of varying concentrations of compound in 40% DMSO in assay buffer (final DMSO concentration is […]) were then added to the cells and incubated at 25° C. for 30 minutes. The plates were added to the FLIPR Tetra®, the device added 5 μL of PAR-1 selective receptor-activating peptide (sequence Ala-parafluoroPhe-Arg-Cha-Cit-Try-NH2, prepared in water) at a concentration equal to the effective concentration that achieved 80% activation of signaling on the day of the experiment. The range of peptide was from 1.5-3 μM. The final volume is 40 uL/well, with 2% DMSO. The FLIPR was read at an excitation wavelength of 480 nm and an emission wavelength of 535 nm, and performed 60 scans over a 1-2 min reading time. The data were analyzed by taking the peak signal over a portion of the range of the 60 scans and dividing this signal by the minimum signal for that same range. The data were expressed as percent inhibition of the maximum divided by the minimum signal achieved at 80% activation produced by the PAR1 activating peptide on the test day. The compounds of Examples 1-13 were tested in the assay described above and the data collected for these compounds is provided.

Chain of CYP3A4 (P08684 whole entry): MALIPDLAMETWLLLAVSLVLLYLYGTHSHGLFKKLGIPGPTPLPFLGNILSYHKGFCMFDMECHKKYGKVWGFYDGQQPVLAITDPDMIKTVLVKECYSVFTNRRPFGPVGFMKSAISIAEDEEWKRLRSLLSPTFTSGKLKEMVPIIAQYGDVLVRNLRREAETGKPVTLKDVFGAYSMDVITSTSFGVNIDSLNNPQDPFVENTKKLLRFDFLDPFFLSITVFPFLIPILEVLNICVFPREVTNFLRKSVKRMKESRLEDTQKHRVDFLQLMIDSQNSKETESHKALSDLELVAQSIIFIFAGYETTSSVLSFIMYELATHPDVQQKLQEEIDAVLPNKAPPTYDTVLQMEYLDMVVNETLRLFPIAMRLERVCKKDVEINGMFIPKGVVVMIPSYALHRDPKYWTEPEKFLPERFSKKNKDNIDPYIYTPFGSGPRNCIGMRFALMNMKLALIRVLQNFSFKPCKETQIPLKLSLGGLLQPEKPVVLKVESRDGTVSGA

IC50 (CYP3A4) [nM] | IC50 (PAR-1 receptor) [nM] | SMILES
≥ 50000 | 25.3 | C[C@H]1OC(=O)[C@]2(c3cc(C(C)(C)C)n(C)n3)CC(F)(F)[C@@H](C)[C@H](/C=C/c3ccc(-c4ccccc4C#N)cn3)[C@H]12 [Example 10, 2-(6-((E)-2-((3R,3aS,4R,5S,7aR)-7a-(5-(tert-butyl)-1-methyl-1H-pyrazol-3-yl)-6,6-difluoro-3,5-dimethyl-1-oxooctahydroisobenzofuran-4-yl)vinyl)pyridin-3-yl)benzonitrile]
17600 | 6.3 | Cc1cccc(-c2ccc(/C=C/[C@@H]3[C@@H]4[C@@H](C)OC(=O)[C@]4(c4cc(C)n(C)n4)CC(F)(F)[C@H]3C)nc2)c1C#N [Example 11]
2400 | 0.99 | C[C@H]1OC(=O)[C@]2(c3cc[nH]n3)CC(F)(F)[C@@H](C)[C@H](/C=C/c3ccc(-c4ccccc4C#N)cn3)[C@H]12 [Example 12, 2-(6-((E)-2-((3R,3aS,4R,5S,7aR)-6,6-difluoro-3,5-dimethyl-1-oxo-7a-(1H-pyrazol-3-yl)octa hydroisobenzofuran-4-yl)vinyl)pyridin-3-yl)benzonitrile]
8800 | 6.2 | C[C@H]1OC(=O)[C@]2(c3cc[nH]n3)CC(F)(F)[C@@H](C)[C@H](/C=C/c3ccc(-c4cccnc4C#N)cn3)[C@H]12 [Example 13, 6′-((E)-2-((3R,3aS,4R,5S,7aR)-6,6-difluoro-3,5-dimethyl-1-oxo-7a-(1H-pyrazol-3-yl)octahydroisobenzofuran-4-yl)vinyl)-[3,3′-bipyridine]-2-carbonitrile]

Second part, the compound before the results:

SMILES | IC50 (CYP3A4) [nM] | IC50 (PAR-1 receptor) [nM]
C[C@H]1OC(=O)[C@]2(c3n[nH]c(=O)o3)CC(F)(F)[C@@H](C)[C@H](/C=C/c3ccc(-c4ccccc4C#N)cn3)[C@H]12 [Example 1, 2-(6-((E)-2-((3R,3aS,4R,5S,7aR)-6,6-difluoro-3,5-dimethyl-1-oxo-7a-(5-oxo-4,5-dihydro-1,3,4-oxadiazol-2-yl)octahydroisobenzofuran-4-yl)vinyl)pyridin-3-yl)benzonitrile] | 21800 | 4.22
Cc1cccc(-c2ccc(/C=C/[C@@H]3[C@@H]4[C@@H](C)OC(=O)[C@]4(c4n[nH]c(=O)o4)CC(F)(F)[C@H]3C)nc2)c1C#N [Example 2, 2-(6-((E)-2-((3R,3aS,4R,5S,7aR)-6,6-difluoro-3,5-dimethyl-1-oxo-7a-(5-oxo-4,5-dihydro-1,3,4-oxadiazol-2-yl)octahydroisobenzofuran-4-yl)vinyl)pyridin-3-yl)-6-methylbenzonitrile] | 22800 | 1.34
Cc1cccc(-c2ccc(/C=C/[C@@H]3[C@@H]4[C@@H](C)OC(=O)[C@]4(c4nnc(N)o4)CC(F)(F)[C@H]3C)nc2)c1C#N [Example 3, 2-(6-((E)-2-((3R,3aS,4R,5S,7aR)-7a-(5-amino-1,3,4-oxadiazol-2-yl)-6,6-difluoro-3,5-dimethyl-1-oxooctahydroisobenzofuran-4-yl)vinyl)pyridin-3-yl)-6-methylbenzonitrile] | 10400 | 1.22
C[C@H]1OC(=O)[C@]2(c3nnc(N)o3)CC(F)(F)[C@@H](C)[C@H](/C=C/c3ccc(-c4ccccc4C#N)cn3)[C@H]12 [Example 4, 2-(6-((E)-2-((3R,3aS,4R,5S,7aR)-7a-(5-amino-1,3,4-oxadiazol-2-yl)-6,6-difluoro-3,5-dimethyl-1-oxooctahydroisobenzofuran-4-yl)vinyl)pyridin-3-yl)benzonitrile] | 9900 | 3.08
Cc1nnc([C@@]23CC(F)(F)[C@@H](C)[C@H](/C=C/c4ccc(-c5cccc(C)c5C#N)cn4)[C@@H]2[C@@H](C)OC3=O)o1 [Example 5, 2-(6-((E)-2-((3R,3aS,4R,5S,7aR)-6,6-difluoro-3,5-dimethyl-7a-(5-methyl-1,3,4-oxadiazol-2-yl)-1-oxooctahydroisobenzofuran-4-yl)vinyl)pyridin-3-yl)-6-methylbenzonitrile] | 16900 | 2.45
Cc1cccc(-c2ccc(/C=C/[C@@H]3[C@@H]4[C@@H](C)OC(=O)[C@]4(c4nnc(C5CC5)o4)CC(F)(F)[C@H]3C)nc2)c1C#N [Example 6, 2-(6-((E)-2-((3R,3aS,4R,5S,7aR)-7a-(5-cyclopropyl-1,3,4-oxadiazol-2-yl)-6,6-difluoro-3,5-dimethyl-1-oxooctahydroisobenzofuran-4-yl)vinyl)pyridin-3-yl)-6-methylbenzonitrile] | – | 2.07
Cc1cccc(-c2ccc(/C=C/[C@@H]3[C@@H]4[C@@H](C)OC(=O)[C@]4(c4nnc(-c5ccccc5)o4)CC(F)(F)[C@H]3C)nc2)c1C#N [Example 7] | – | 5.01
C[C@H]1OC(=O)[C@]2(c3n[nH]c(=O)o3)CC(F)(F)[C@@H](C)[C@H](/C=C/c3ccc(-c4cccc(F)c4)cn3)[C@H]12 [Example 8, 5-((1R,3aR,6S,7R,7aS)-5,5-difluoro-7-((E)-2-(5-(3-fluorophenyl)pyridin-2-yl)vinyl)-1,6-dimethyl-3-oxooctahydroisobenzofuran-3a-yl)-1,3,4-oxadiazol-2(3H)-one] | – | 28.7
C[C@H]1OC(=O)[C@]2(c3cc(C(C)(C)C)[nH]n3)CC(F)(F)[C@@H](C)[C@H](/C=C/c3ccc(-c4ccccc4C#N)cn3)[C@H]12 [Example 9, 2-(6-((E)-2-((3R,3aS,4R,5S,7aR)-7a-(5-(tert-butyl)-1H-pyrazol-3-yl)-6,6-difluoro-3,5-dimethyl-1-oxooctahydroisobenzofuran-4-yl)vinyl)pyridin-3-yl)benzonitrile] | – | 14.5

From US10322140B2, “Preparation and use of 7a-heterocycle substituted-6,6-difluoro bicyclic himbacine derivatives as PAR-1 receptor antagonists” (Merck Sharp & Dohme Corp., priority 2013, dated 2019)
